Measured values: BindingDB's records for patent US11149040 (Amgen, 2021)

Target: T1, Apelin receptor (Homo sapiens, UniProt P35414)
T1 sequence (P35414 whole entry): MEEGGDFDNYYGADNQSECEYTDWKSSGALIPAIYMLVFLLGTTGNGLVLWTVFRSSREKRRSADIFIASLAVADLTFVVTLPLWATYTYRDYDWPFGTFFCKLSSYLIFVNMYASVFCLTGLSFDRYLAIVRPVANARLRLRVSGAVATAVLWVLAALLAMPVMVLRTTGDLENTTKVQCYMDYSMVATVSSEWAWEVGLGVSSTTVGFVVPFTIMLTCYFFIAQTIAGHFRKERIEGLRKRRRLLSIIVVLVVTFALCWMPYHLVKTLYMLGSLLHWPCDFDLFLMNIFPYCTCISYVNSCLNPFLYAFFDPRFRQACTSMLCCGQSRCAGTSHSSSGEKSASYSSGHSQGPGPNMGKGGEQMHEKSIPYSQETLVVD
Assay: [35S]GTPgammaS Binding
Procedure: The human APJ receptor was cloned by polymerase chain reaction and the gene encoding the receptor was subcloned in pFLAG-CMV -3 expression vector (Sigma, Saint Louis, Mo. USA) in-house at Amgen. A GTPγS binding assay was performed on membranes prepared from CHO cells stably expressing human APJ receptor. The optimum experimental conditions for the concentrations of GDP, MgCl2, and NaCl in the assay buffer were initially determined. The assay was performed in 9 μL assay buffer [20 mM HEPES, pH 7.5, 5 mM MgCl2, 100 mM NaCl and 0.1% (w/v) BSA], 1 μL of diluted test compound (starting with 0.75 mM, 2-fold serial dilution with DMSO, total 22 points), 10 μL of 18 μM GDP (final concentration of 3 μM GDP), 20 μL of […] membrane protein expressing human APJ receptor captured with WGA PS beads (final concentration of 5 μg per well), and 20 μL of 0.3 nM [35S]GTPγS (final concentration is 0.1 nM [35S]GTPγS)(Perkin Elmer Life and Analytical Sciences, Waltham USA). […] Incubation was at RT for 90 min and the microplate was read using a ViewLux ultra HTS Microplate Imager (PerkinElmer, Inc.). All the results presented are means of several independent experiments and analyzed by non-linear regression methods using the commercially available program Prism (GraphPad, San Diego, Calif.) providing the EC50 values detailed in Table 13.

Cc1cnc([C@H](OC(C)C)[C@H](C)S(=O)(=O)Nc2nnc3n2-c2c(F)cccc2/C=C\CC3)nc1 (single isomer, unassigned) [US11149040, Example 49.0]
EC50: 98 nM
